Experimental data from ChEMBL document CHEMBL3769377, “A synthesis, in silico, in vitro and in vivo study of thieno[2,3-b]pyridine anticancer analogues” (Medchemcomm, 2015).

Key:
[1] = target: Casein kinase I isoform delta (Homo sapiens) (UniProt P48730); test: Inhibition of human recombinant CSNK1D assessed as residual activity at 10 uM after 1 hr by qPCR analysis relative to control
[2] = target: TGF-beta receptor type-1 (Homo sapiens) (UniProt P36897); test: Inhibition of human recombinant TGFBR1 assessed as residual activity at 10 uM after 1 hr by qPCR analysis relative to control
[3] = target: ALK tyrosine kinase receptor (Homo sapiens) (UniProt Q9UM73); test: Inhibition of human recombinant ALK assessed as residual activity at 10 uM after 1 hr by qPCR analysis relative to control
[4] = target: Vascular endothelial growth factor receptor 2 (Homo sapiens) (UniProt P35968); test: Inhibition of human recombinant VEGFR2 assessed as residual activity at 10 uM after 1 hr by qPCR analysis relative to control
[5] = target: Serine/threonine-protein kinase pim-3 (Homo sapiens) (UniProt Q86V86); test: Inhibition of human recombinant PIM3 assessed as residual activity at 10 uM after 1 hr by qPCR analysis relative to control
[6] = target: Cyclin-dependent kinase 9 (Homo sapiens) (UniProt P50750); test: Inhibition of human recombinant CDK9 assessed as residual activity at 10 uM after 1 hr by qPCR analysis relative to control
[7] = target: Mitogen-activated protein kinase kinase kinase 4 (Homo sapiens) (UniProt Q9Y6R4); test: Inhibition of human recombinant MAP3K4 assessed as residual activity at 10 uM after 1 hr by qPCR analysis relative to control
[8] = target: Mitogen-activated protein kinase 14 (Homo sapiens) (UniProt Q16539); test: Inhibition of human recombinant p38alpha assessed as residual activity at 10 uM after 1 hr by qPCR analysis relative to control
[9] = target: Focal adhesion kinase 1 (Homo sapiens) (UniProt Q05397); test: Inhibition of human recombinant FAK assessed as residual activity at 10 uM after 1 hr by qPCR analysis relative to control
[10] = target: Platelet-derived growth factor receptor alpha (Homo sapiens) (UniProt P16234); test: Inhibition of human recombinant PDGFRA assessed as residual activity at 10 uM after 1 hr by qPCR analysis relative to control
Mus musculus = test: Toxicity in athymic nude/beige mouse xenografted with human 786-O cells assessed as dark circles around eyes at 0.16 mg/kg, ip qd after 24 days; format: organism-based, 786-0; conditions: in vivo, 576 h
[11] = target: Receptor tyrosine-protein kinase erbB-2 (Homo sapiens) (UniProt P04626); test: Inhibition of human recombinant ERBB2 assessed as residual activity at 10 uM after 1 hr by qPCR analysis relative to control
[12] = target: 3-phosphoinositide-dependent protein kinase 1 (Homo sapiens) (UniProt O15530); test: Inhibition of human recombinant PDPK1 assessed as residual activity at 10 uM after 1 hr by qPCR analysis relative to control
[13] = target: Cyclin-dependent kinase 11B (Homo sapiens) (UniProt P21127); test: Inhibition of human recombinant CDK11 assessed as residual activity at 10 uM after 1 hr by qPCR analysis relative to control
[14] = target: Phosphatidylinositol 4-phosphate 3-kinase C2 domain-containing subunit beta (Homo sapiens) (UniProt O00750); test: Inhibition of human recombinant PIK3C2B assessed as residual activity at 10 uM after 1 hr by qPCR analysis relative to control
[15] = target: Rho-associated protein kinase 2 (Homo sapiens) (UniProt O75116); test: Inhibition of human recombinant ROCK2 assessed as residual activity at 10 uM after 1 hr by qPCR analysis relative to control
[16] = test system: Serine/threonine-protein kinase B-raf (Homo sapiens), P15056 [V600E]; test: Inhibition of human recombinant BRAF V600E mutant assessed as residual activity at 10 uM after 1 hr by qPCR analysis relative to control
[17] = target: Tyrosyl-DNA phosphodiesterase 1 (Homo sapiens, UniProt Q9NUW8); test: Inhibition of recombinant human N-terminal His-tagged TDP1 (1824 bp) expressed in Escherichia coli BL21(DE3) cells using 5'-(5,6 FAM-AAC GTC AGG GTC TTC C-BHQ1)-3' as substrate measured every 1 min by RT-PCR method
[18] = target: Serine/threonine-protein kinase PLK1 (Homo sapiens) (UniProt P53350); test: Inhibition of human recombinant PLK1 assessed as residual activity at 10 uM after 1 hr by qPCR analysis relative to control
[19] = target: Inhibitor of nuclear factor kappa-B kinase subunit beta (Homo sapiens) (UniProt O14920); test: Inhibition of human recombinant IKKbeta assessed as residual activity at 10 uM after 1 hr by qPCR analysis relative to control
[20] = target: Receptor tyrosine-protein kinase erbB-4 (Homo sapiens) (UniProt Q15303); test: Inhibition of human recombinant ERBB4 assessed as residual activity at 10 uM after 1 hr by qPCR analysis relative to control
[21] = target: MAP kinase-interacting serine/threonine-protein kinase 2 (Homo sapiens) (UniProt Q9HBH9); test: Inhibition of human recombinant MKNK2 assessed as residual activity at 10 uM after 1 hr by qPCR analysis relative to control
[22] = target: Bone morphogenetic protein receptor type-2 (Homo sapiens) (UniProt Q13873); test: Inhibition of human recombinant BMPR2 assessed as residual activity at 10 uM after 1 hr by qPCR analysis relative to control
[23] = target: Mitogen-activated protein kinase 9 (Homo sapiens) (UniProt P45984); test: Inhibition of human recombinant JNK2 assessed as residual activity at 10 uM after 1 hr by qPCR analysis relative to control
[24] = target: Testis-specific serine/threonine-protein kinase 1 (Homo sapiens) (UniProt Q9BXA7); test: Inhibition of human recombinant TSSK1B assessed as residual activity at 10 uM after 1 hr by qPCR analysis relative to control
[25] = target: Epidermal growth factor receptor (Homo sapiens) (UniProt P00533); test: Inhibition of human recombinant EGFR assessed as residual activity at 10 uM after 1 hr by qPCR analysis relative to control
[26] = target: Platelet-derived growth factor receptor beta (Homo sapiens) (UniProt P09619); test: Inhibition of human recombinant PDGFRB assessed as residual activity at 10 uM after 1 hr by qPCR analysis relative to control
[27] = target: Phosphatidylinositol 4,5-bisphosphate 3-kinase catalytic subunit gamma isoform (Homo sapiens) (UniProt P48736); test: Inhibition of human recombinant PIK3CG assessed as residual activity at 10 uM after 1 hr by qPCR analysis relative to control
[28] = test system: Tyrosine-protein kinase ABL1 (Homo sapiens), P00519 [T315I]; test: Inhibition of human recombinant phosphorylated ABL1 T315I mutant assessed as residual activity at 10 uM after 1 hr by qPCR analysis relative to control
[29] = target: Dual specificity mitogen-activated protein kinase kinase 2 (Homo sapiens) (UniProt P36507); test: Inhibition of human recombinant MEK2 assessed as residual activity at 10 uM after 1 hr by qPCR analysis relative to control

Sequence of Focal adhesion kinase 1 (Homo sapiens) (Q05397 2-1052 limits assumed): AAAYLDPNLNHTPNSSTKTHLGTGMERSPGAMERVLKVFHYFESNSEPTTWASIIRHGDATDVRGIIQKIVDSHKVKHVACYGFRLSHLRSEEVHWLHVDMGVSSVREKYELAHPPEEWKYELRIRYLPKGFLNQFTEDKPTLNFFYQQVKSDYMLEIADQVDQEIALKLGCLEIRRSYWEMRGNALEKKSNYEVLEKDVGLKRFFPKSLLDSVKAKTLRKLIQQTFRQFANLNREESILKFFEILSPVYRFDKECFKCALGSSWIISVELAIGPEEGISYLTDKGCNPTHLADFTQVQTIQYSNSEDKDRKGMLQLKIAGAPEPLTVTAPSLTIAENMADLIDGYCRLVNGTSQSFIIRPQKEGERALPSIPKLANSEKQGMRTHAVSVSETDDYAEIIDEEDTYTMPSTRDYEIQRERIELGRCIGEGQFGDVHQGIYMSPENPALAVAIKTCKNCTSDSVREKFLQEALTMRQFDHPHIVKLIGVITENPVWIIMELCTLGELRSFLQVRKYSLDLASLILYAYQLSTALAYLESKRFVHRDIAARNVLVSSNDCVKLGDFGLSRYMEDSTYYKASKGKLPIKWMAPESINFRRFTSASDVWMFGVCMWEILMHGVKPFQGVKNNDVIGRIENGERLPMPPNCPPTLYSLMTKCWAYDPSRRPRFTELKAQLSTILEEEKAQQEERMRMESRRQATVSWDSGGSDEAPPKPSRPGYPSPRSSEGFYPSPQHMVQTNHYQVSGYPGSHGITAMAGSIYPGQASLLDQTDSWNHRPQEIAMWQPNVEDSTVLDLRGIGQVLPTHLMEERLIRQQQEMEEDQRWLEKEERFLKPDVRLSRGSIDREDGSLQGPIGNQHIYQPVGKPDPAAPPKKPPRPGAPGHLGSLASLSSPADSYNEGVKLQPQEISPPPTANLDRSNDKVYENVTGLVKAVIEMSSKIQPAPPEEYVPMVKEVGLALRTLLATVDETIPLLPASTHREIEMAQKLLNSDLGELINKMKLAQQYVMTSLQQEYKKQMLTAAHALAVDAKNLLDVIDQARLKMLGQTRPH
Sequence of 3-phosphoinositide-dependent protein kinase 1 (Homo sapiens) (O15530 whole entry): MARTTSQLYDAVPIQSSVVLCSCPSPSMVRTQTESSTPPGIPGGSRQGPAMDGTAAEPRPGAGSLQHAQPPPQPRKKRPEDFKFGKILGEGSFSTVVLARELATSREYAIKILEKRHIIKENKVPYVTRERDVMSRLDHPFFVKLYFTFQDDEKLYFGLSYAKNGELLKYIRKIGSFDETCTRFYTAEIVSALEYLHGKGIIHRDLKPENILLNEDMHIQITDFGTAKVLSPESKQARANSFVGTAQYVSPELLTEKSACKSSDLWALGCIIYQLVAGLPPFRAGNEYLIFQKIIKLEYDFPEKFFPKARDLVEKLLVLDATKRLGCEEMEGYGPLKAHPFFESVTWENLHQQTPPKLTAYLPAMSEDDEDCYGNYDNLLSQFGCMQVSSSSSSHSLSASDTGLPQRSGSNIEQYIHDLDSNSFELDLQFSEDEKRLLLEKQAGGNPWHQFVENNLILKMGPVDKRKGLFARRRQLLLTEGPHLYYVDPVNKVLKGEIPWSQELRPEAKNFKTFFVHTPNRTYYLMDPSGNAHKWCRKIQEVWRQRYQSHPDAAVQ
Sequence of Vascular endothelial growth factor receptor 2 (Homo sapiens) (P35968 whole entry): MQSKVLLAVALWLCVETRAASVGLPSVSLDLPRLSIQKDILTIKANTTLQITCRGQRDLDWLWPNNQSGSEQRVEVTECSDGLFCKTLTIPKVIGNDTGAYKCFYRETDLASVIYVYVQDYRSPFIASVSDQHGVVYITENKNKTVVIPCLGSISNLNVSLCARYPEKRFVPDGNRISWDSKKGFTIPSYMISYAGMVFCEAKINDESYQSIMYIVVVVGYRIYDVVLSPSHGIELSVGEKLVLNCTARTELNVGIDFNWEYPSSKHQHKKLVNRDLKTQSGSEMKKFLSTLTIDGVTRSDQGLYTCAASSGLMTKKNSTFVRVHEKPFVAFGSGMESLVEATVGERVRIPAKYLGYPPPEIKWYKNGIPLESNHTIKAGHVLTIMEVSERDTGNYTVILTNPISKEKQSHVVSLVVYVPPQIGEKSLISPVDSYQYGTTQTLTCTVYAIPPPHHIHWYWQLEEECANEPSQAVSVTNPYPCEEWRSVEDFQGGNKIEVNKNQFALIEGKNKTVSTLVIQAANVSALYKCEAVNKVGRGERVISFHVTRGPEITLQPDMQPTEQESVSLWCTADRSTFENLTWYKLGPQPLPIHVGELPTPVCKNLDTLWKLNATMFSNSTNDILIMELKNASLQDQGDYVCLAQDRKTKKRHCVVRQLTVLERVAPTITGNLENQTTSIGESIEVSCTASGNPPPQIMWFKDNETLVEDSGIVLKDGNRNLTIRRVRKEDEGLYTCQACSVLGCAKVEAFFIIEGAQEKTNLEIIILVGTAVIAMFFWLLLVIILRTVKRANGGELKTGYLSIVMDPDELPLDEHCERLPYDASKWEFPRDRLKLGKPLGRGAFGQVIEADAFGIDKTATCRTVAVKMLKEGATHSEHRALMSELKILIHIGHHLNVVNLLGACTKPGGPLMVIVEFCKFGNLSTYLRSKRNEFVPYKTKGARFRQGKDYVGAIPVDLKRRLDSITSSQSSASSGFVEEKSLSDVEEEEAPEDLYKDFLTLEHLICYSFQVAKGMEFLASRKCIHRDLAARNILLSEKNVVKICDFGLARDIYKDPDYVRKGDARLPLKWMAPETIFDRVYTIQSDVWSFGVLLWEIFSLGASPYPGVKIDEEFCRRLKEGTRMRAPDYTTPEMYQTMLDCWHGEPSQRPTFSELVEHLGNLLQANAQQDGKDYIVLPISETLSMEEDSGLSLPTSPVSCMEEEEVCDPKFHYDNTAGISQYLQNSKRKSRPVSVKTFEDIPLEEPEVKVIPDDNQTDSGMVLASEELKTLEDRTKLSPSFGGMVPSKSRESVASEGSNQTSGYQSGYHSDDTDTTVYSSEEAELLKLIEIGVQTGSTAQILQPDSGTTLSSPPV
Sequence of Mitogen-activated protein kinase kinase kinase 4 (Homo sapiens) (Q9Y6R4 whole entry): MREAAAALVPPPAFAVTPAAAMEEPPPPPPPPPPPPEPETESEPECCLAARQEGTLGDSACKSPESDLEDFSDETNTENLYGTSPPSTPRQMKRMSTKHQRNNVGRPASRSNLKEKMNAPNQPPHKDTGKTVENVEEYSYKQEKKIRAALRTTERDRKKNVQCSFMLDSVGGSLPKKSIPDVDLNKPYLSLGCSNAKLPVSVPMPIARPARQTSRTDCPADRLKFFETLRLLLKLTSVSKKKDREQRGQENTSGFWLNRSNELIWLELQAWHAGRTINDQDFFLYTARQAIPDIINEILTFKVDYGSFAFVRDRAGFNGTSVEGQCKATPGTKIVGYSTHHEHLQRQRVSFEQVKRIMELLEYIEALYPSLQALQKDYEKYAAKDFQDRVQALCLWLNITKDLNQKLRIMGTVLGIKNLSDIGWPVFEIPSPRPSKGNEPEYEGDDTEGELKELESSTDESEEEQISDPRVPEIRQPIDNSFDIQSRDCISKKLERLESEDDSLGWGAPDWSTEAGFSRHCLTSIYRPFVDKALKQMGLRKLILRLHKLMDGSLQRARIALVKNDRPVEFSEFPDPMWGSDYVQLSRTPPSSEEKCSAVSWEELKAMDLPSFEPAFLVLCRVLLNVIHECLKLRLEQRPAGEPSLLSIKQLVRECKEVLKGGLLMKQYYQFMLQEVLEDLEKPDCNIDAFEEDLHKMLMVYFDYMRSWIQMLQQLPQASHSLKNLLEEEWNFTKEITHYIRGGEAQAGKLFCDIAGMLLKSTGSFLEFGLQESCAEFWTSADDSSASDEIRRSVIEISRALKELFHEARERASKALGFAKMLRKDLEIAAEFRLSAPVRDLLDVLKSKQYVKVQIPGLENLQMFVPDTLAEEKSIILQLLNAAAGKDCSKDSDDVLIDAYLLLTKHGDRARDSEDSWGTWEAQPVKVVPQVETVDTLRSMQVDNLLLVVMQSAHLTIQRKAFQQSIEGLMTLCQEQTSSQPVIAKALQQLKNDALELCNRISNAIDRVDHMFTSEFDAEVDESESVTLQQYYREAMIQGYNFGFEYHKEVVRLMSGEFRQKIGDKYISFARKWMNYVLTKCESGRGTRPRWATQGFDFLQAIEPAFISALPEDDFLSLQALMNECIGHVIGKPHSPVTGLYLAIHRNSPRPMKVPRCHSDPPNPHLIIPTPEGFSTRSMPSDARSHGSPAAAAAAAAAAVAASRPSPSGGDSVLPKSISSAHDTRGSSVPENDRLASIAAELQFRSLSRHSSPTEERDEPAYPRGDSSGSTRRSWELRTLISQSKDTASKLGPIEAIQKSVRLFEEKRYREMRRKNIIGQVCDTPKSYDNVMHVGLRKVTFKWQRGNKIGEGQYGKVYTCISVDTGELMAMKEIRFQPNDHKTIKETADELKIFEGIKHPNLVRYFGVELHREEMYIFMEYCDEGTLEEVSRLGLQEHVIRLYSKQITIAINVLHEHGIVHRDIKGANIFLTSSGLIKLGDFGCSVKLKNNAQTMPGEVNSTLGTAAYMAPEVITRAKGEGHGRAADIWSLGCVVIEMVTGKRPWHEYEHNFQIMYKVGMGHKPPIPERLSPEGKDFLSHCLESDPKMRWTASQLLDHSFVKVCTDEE
Sequence of Casein kinase I isoform delta (Homo sapiens) (P48730 whole entry, looked up, canonical isoform): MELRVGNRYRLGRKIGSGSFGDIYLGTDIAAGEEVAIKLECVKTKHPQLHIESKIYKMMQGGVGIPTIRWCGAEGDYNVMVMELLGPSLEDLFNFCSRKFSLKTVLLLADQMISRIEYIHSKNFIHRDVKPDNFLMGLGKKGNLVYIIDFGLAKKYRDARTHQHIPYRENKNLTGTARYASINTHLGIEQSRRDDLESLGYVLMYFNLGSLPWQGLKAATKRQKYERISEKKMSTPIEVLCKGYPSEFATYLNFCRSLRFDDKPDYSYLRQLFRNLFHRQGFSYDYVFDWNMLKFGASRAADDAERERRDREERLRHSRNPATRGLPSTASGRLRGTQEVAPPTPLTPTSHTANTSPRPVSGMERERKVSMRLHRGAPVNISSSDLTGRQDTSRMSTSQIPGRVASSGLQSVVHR

Question: What does the source list for `Cc1c(Cl)cccc1NC(=O)c1sc2nc3c(cc2c1N)C(=O)CC3`?
Answer: Activity [1]: 100%; Activity [2]: 100%; Activity [3]: 100%; Activity [4]: 100%; Activity [5]: 92%; Activity [6]: 100%; Activity [7]: 96%; Activity [8]: 100%; Activity [9]: 100%; Activity [10]: 100%; Activity (Mus musculus): Toxic; Activity [11]: 100%; Activity [12]: 100%; Activity [13]: 100%; Activity [14]: 100%; Activity [15]: 100%; Activity [16]: 90%; IC50 [17]: 2.2 µM; Activity [18]: 91%; Activity [19]: 100%; Activity [20]: 100%; Activity [21]: 91%; Activity [22]: 96%; Activity [23]: 93%; Activity [24]: 65%; Activity [25]: 100%; Activity [26]: 95%; Activity [27]: 100%; Activity [28]: 90%; Activity [29]: 98%
